Source: US20050261273A1, “Substituted urea and carbamate, phenacyl-2-hydroxy-3-diaminoalkane, and benzamide-2-hydroxy-3-diaminoalkane aspartyl-protease inhibitors” (priority 2004, published 2005)

Assays:
[1] = molecular target: cathepsin D (catD) versus beta-secretase (BACE) (Homo sapiens, UniProt P07339); assay: CatD/BACE selectivity (ratio of IC50 values); assay type: biochemical; conditions: each value is an average of four experimental runs; multiple values = more than one experiment
Experimental: (§1) Investigation of potential beta-secretase inhibitors produced compounds with increased selectivity for beta-secretase over other aspartyl proteases such as cathepsin D (catD), cathepsin E (catE), Human Immunodeficiency Viral (HIV) protease, and renin. Selectivity was calculated as a ratio of inhibition (IC50) values in which the inhibition of beta-secretase was compared to the inhibition of other aspartyl proteases.
The compounds of formula (I) can be selective for beta-secretase versus catD.
(§2) In the following examples, each value is an average of four experimental runs and multiple values for one compoundd indicate that more than one experiment was conducted.

[2] = molecular target: T1, cathepsin E (catE) versus beta-secretase (BACE) (Homo sapiens, UniProt P14091); assay: CatE/BACE selectivity (ratio of IC50 values); assay type: biochemical; conditions: each value is an average of four experimental runs; multiple values = more than one experiment
T1 sequence (P14091 54-396): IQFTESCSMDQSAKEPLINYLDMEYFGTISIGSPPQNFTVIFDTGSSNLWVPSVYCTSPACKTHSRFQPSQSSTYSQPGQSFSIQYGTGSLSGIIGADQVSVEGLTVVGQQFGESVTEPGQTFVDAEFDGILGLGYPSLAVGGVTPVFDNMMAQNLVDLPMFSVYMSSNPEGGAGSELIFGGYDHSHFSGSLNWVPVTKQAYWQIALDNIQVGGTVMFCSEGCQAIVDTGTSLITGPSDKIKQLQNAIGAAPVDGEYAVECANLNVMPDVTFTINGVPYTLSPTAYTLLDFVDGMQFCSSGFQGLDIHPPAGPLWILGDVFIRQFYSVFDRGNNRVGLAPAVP
Experimental: as §1
The compounds of formula (I) can be selective for beta-secretase versus catE. […] Selectivity is reported as the ratio of IC50(catE):IC50(BACE).
as §2

Sequence of cathepsin D (catD) versus beta-secretase (BACE) (P07339 65-412): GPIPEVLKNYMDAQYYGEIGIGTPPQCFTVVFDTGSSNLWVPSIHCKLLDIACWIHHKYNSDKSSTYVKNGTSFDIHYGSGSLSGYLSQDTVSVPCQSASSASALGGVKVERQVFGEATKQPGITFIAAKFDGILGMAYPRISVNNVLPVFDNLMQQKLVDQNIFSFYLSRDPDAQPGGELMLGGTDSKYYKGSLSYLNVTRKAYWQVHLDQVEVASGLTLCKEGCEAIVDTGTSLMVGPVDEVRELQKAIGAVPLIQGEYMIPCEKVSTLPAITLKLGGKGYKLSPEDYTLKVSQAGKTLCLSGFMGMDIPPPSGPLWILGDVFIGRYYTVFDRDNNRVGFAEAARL

| SMILES | IC50 CatD/IC50 BACE [1] | IC50 CatE/IC50 BACE [2] |
| --- | --- | --- |
| CN(c1cccc(C(=O)NC(Cc2cc(F)cc(F)c2)C(O)CNC2(c3cccc(C(C)(C)C)c3)CCCCC2)c1)S(C)(=O)=O (stereo not drawn) [Example 325A-2] | 3.1 |  |
| CC(C)(C)c1cccc(C2(NCC(O)C(Cc3cc(F)cc(F)c3)NC(=O)COCC(=O)O)CCCCC2)c1 (stereo not drawn) [Example 325A-3] | 2.0 |  |
| CC(C)(C)c1cccc(C2(NCC(O)C(Cc3cc(F)cc(F)c3)NC(=O)CCCC(=O)O)CCCCC2)c1 (stereo not drawn) [Example 325A-4] | 1.9 |  |
| CC(C)(CCC(=O)NC(Cc1cc(F)cc(F)c1)C(O)CNC1(c2cccc(C(C)(C)C)c2)CCCCC1)C(=O)O (stereo not drawn) [Example 325A-5] | 1.7 |  |
| CC(C)(C)c1cccc(C2(NCC(O)C(Cc3cc(F)cc(F)c3)NC(=O)c3csc(NS(C)(=O)=O)n3)CCCCC2)c1 (stereo not drawn) [Example 325A-6] | 5.0 |  |
| CC(C)(CCC(=O)NC(Cc1cc(F)cc(F)c1)C(O)CNC1(c2cccc(C(C)(C)C)c2)CCCCC1)C(=O)O (stereo not drawn) [Example 325B-1] |  | 8.3 |
| CC(C)(C)c1cccc(C2(NCC(O)C(Cc3cc(F)cc(F)c3)NC(=O)CCCC(=O)O)CCCCC2)c1 (stereo not drawn) [Example 325B-3] |  | 3.4 |
| CC(C)(C)c1cccc(C2(NCC(O)C(Cc3cc(F)cc(F)c3)NC(=O)COCC(=O)O)CCCCC2)c1 (stereo not drawn) [Example 325B-4] |  | 3.2 |
| CC(C)(C)c1cccc(C2(NCC(O)C(Cc3cc(F)cc(F)c3)NC(=O)c3csc(NS(C)(=O)=O)n3)CCCCC2)c1 (stereo not drawn) [Example 325B-5] |  | 1.2 |
